Like-named read-outs stand apart in the source and are kept apart here.
Experiments:
[1] = Leaching of infiltrated oil in a microfluidic system under water flow; type: physicochemical
Description: Experiments were conducted to determine whether fluid from SLIPS leach into the surrounding biological fluid. A nanostructured post array surface (2 μm tall posts, 300 nm diameter, 0.9 μm spacing) with infiltrated perfluorinated oil (Fluorinert FC-70) was integrated into a microfluidic system. Deionized water flowed into the channel at a rate of 12 mL/min (i.e., 720 mL/hr) for 5 minutes. […] The slipperiness of the surface was examined by putting a droplet of decane on the surface. If decane applied to the surface maintains its mobility on the surface, then the lubricants remain attached on the structured surface. However, if decane remains pinned on the surface, the lubricant layer has not been maintained. Leaching can also be monitored by extracting fluid that has passed over SLIPS into a fluorinated solvent followed by followed by chromatography and mass spectrometry and 19F-NMR.
Defining maximum leaching of the infiltrated fluid as the ratio between the total amounts of the perfluorinated oil infiltrated the surface and the volume of water processed in the microfluidic system, the maximum leaching was <0.2%. Because perfluorocarbons are already approved by the Food and Drug Administration as blood substitutes, leaching of this amount of oil is expected to be harmless. […]

[2] = Contact angles of various liquids on flat solids; type: physicochemical; parameters: unit not given here
Description: The behavior of liquids on surfaces is described by an equilibrium contact angle. An equilibrium contact angle, θ, is the angle at which a liquid/vapor interface meets a solid surface, which is determined by the interactions across the three interfaces, e.g., solid/liquid/vapor. […] The upper limit is known as the apparent advancing contact angle (θA), whereas the lower limit is referred as the apparent receding contact angle (θR). The difference between these values is known as contact angle hysteresis (i.e., Δθ=θA−θR, where θA≥θ≥θR), which characterizes the liquid repellency of a surface. Conventionally, equilibrium contact angle can be roughly estimated by the average of the advancing and receding angles (i.e., θ=(θA+θR)/2), or by a static contact angle, θstatic (i.e., θ=θstatic).
In practice, contact angle measurement can be performed by a number of different well-established techniques, such as the sessile drop method and the Wilhelmy method. In particular, the sessile drop method is among the most popular technique for contact angle measurement. In this technique, a liquid droplet is deposited on a targeted solid surface, where the liquid profile is captured by an optical system of a goniometer and geometrically fitted to obtain the contact angle. The contact angle measured from a static liquid droplet deposited on the surface is known as the static contact angle, θstatic. Using the same system, advancing contact angle, θA, can be measured while the volume of the drop is increasing until the wetting line starts to advance. Receding contact angle, θR, can be measured by decreasing the volume of the drop and determining the contact angle just before the wetting line recedes. Alternatively, the advancing and the receding angles of the liquid drop can also be determined by gradually tilting the solid surface until the liquid drop starts to move.

P. aeruginosa = settings: 1% and 0.1% concentrations; 3, 6, 9, and 30 hours; 550 nm
[3] = Surface tension of polar and non-polar liquids; type: physicochemical
Source text: Fluid-fluid interfacial tension can be measured by many well-established techniques, such as the Wilhelmy plate method, the Du Noüy ring method, and the pendant drop method (e.g., see Drelich et al., in Encyclopedia of Surface and Colloid Science, pp. 3152-3166, Marcel Dekker Inc, 2002, the contents of which is incorporated by reference herein in its entirety). Among all of the techniques, the pendant drop method is among the most popular and versatile technique, which can be easily extended to a two-liquid system. The pendant drop method measures the shape of a fluid-fluid interface and quantifies the shape distortion due to the competition between the fluid-fluid interfacial tension and gravity. In practice, a drop of denser fluid (e.g., Object A) is suspended by a syringe needle in medium X (i.e., air/water/the lubricating fluid). Owing to the influence of gravity, the denser liquid droplet will be deformed as the liquid volume increases. The shape profile of the liquid droplet is captured by an optical system and subsequently analyzed by a computer software when the liquid volume is increased to the maximum possible size (i.e., before the liquid drop is detached from the syringe needle). The interfacial tension of the fluid-fluid interface, γ, can then be deduced from the formula, γ=ΔρgD^2/H, where Δρ is the density difference between the two immiscible fluids, g is gravity, D is equatorial diameter of the liquid droplet, and H is drop shape dependent parameters which is a function of the shape profile of the droplet.

[4] = test system: Pseudomonas aeruginosa (PA-14); test: Toxicity screening of lubricating fluids by CFU quantification; settings: 1% versus 0.01% of product in tryptone broth, 37° C. overnight, orbital shaker
Description: (§1) The toxicity screening assay was based on adding 1% and 0.01% of each commercial product to 10 mL aliquots of tryptone broth, which were inoculated with 1% initial seeding concentration of Pseudomonas aeruginosa (PA-14) preculture and incubated at 37° C. overnight in an orbital shaker. The shaken culture was serially diluted, plated, and incubated for colony forming unit (CFU) quantification.

[5] = test system: Pseudomonas aeruginosa (PA-14)
Description: as §1

[6] = flat solid S. (silanized epoxy)

FC(F)(F)C(F)(F)C(F)(F)C(F)(F)C(F)(F)N(C(F)(F)C(F)(F)C(F)(F)C(F)(F)C(F)(F)F)C(F)(F)C(F)(F)C(F)(F)C(F)(F)C(F)(F)F [FC-70, perfluoro-tripentylamine]
retention of infiltrated oil on nanostructured surface ([1]; deionized water 12 mL/min for 5 minutes, nanostructured post array): remained intact | maximum leaching ([1]; ratio of total infiltrated oil to volume of water processed): < 0.2% | Measured contact angle θadv ([2]; flat solid Epoxy): 35.1 ± 0.6 | Measured contact angle θrec ([2]; flat solid Epoxy): 26.7 ± 1.4 | Measured contact angle θstatic ([2]; flat solid Epoxy): 33.5 ± 1.1 | Measured contact angle θadv [2, 6]: 23.7 ± 4.1 | Measured contact angle θrec [2, 6]: 0.0 ± 0.0 | Measured contact angle θstatic [2, 6]: 14.1 ± 0.8 | bacterial growth (optical densities) compared to control culture (P. aeruginosa): statistically indistinguishable bacterial growth | Surface Tension [3]: 17.1 ± 0.3 mN/m | toxicity screening, CFU [4]: Significantly reduced CFU

FC1(F)C(F)(F)C(F)(F)C2(F)C(F)(F)C(F)(F)C(F)(F)C(F)(F)C2(F)C1(F)F (stereo not shown) [Perfluorodecalin]
bacterial growth (optical densities) compared to control culture (P. aeruginosa): statistically indistinguishable bacterial growth | toxicity screening, CFU [5]: Significantly reduced CFU

Source: patent publication US10982100B2, “Slippery liquid-infused porous surfaces and biological applications thereof” (President and Fellows of Harvard College, priority 2011, dated 2021)
